From ChEMBL document CHEMBL1201862, “PubChem BioAssay data set” (2004)
Values joined by “and” are separate entries in the source; they are usually repeats but may differ in a detail not shown here. Equal values may be shown once. Where a name gives a salt, the structure may show the parent alone.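 Results reflect a 48-hour exposure of cells in 96-well plates to compound at five concentrations. Here, GI50 denotes the concentration required for 50% inhibition of growth.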 Active and inactive are the calls of the source. Cut-off read from the data, not from the text of the source: active = GI50 up to about 1.1 µM and inactive = higher.

Legend:
Experiment in all cases: DTP human tumour cell line panel, 48 h
OVCAR-5 = test system: OVCAR-5
NCI-H23 = test system: NCI-H23
IGROV-1 = test system: IGROV-1
NCI-H522 = test system: NCI-H522
HT-29 = test system: HT-29
CCRF-CEM = test system: CCRF-CEM
SNB-78 = test system: SNB-78
SW-620 = test system: SW-620
SF-539 = test system: SF-539
UACC-257 = test system: UACC-257
HL-60 = test system: HL-60
SK-MEL-28 = test system: SK-MEL-28
NCI-H226 = test system: NCI-H226
UO-31 = test system: UO-31
Malme-3M = test system: Malme-3M
HCC 2998 = test system: HCC 2998
HOP-62 = test system: HOP-62
NCI/ADR-RES = test system: NCI/ADR-RES
OVCAR-3 = test system: OVCAR-3
ACHN = test system: ACHN

SMILES	GI50 (OVCAR-5)	GI50 (NCI-H23)	GI50 (IGROV-1)	GI50 (NCI-H522)	GI50 (HT-29)	GI50 (CCRF-CEM)	GI50 (SNB-78)	GI50 (SW-620)	GI50 (SF-539)	GI50 (UACC-257)	GI50 (HL-60)	GI50 (SK-MEL-28)	GI50 (NCI-H226)	GI50 (UO-31)	GI50 (Malme-3M)	GI50 (HCC 2998)	GI50 (HOP-62)	GI50 (NCI/ADR-RES)	GI50 (OVCAR-3)	GI50 (ACHN)
CCOC(=O)CNC(=O)N(CC)C12CC3CC(CC(C3)C1)C2	161 µM (inactive)	159 µM (inactive)	184 µM (inactive)	123 µM (inactive)	132 µM (inactive)	135 µM (inactive)	166 µM (inactive)	145 µM (inactive)	123 µM (inactive)	122 µM (inactive)	107 µM (inactive)	206 µM (inactive)	146 µM (inactive)	149 µM (inactive)	133 µM (inactive)	158 µM (inactive)	128 µM (inactive)	151 µM (inactive)	114 µM (inactive)	
O=C1c2cccc3cc4ccccc4c(c23)C(=O)N1CCNCCN1C(=O)c2cccc3cc4ccccc4c(c23)C1=O	0.406 µM (active)	0.364 µM (active)	0.589 µM (active)	1.53 µM (inactive)	0.351 µM (active)	0.199 µM (active)	0.518 µM (active)	0.238 µM (active)	0.773 µM (active)	1.27 µM (inactive)	0.178 µM (active)	0.592 µM (active)	2.21 µM (inactive)	0.277 µM (active)	0.465 µM (active)	0.912 µM (active)	1.04 µM (active)	0.522 µM (active)	0.484 µM (active)	
CSc1sc(=S)sc1SC	> 100 µM (inactive)	> 100 µM (inactive)	> 100 µM (inactive)	> 100 µM (inactive)	> 100 µM (inactive)	> 100 µM (inactive)	> 100 µM (inactive)	> 100 µM (inactive)	> 100 µM (inactive)	> 100 µM (inactive)	> 31.6 µM (inactive)	> 100 µM (inactive)	> 100 µM (inactive)	> 100 µM (inactive)	> 100 µM (inactive)	> 100 µM (inactive)	> 100 µM (inactive)	25.7 µM (inactive)	> 100 µM (inactive)	
C=C1C(=O)OC2CC(C)C3C4OC4C(O)C3(C)C(O)C12 (stereo not drawn)	64 µM (inactive)	14.4 µM (inactive)	18.6 µM (inactive)	9.42 µM (inactive)	27.5 µM (inactive)	12 µM (inactive)	13.5 µM (inactive)	16.5 µM (inactive)	17.9 µM (inactive)	37.8 µM (inactive)	13.8 µM (inactive)	23.6 µM (inactive)	30 µM (inactive)	80.2 µM (inactive)	20.9 µM (inactive)	30.8 µM (inactive)	68.9 µM (inactive)	20.7 µM (inactive)	25.9 µM (inactive)	
CCC1OC(=O)C(C)C(OC2CC(C)(O)C(O)C(C)O2)C(C)C(O)C(C)(O)CC(C)C(=O)C(C)C(O)C1C (stereo not drawn)	> 292 µM (inactive)	> 300 µM (inactive)	> 300 µM (inactive)	> 300 µM (inactive)	> 300 µM (inactive)	> 300 µM (inactive)	204 µM (inactive)	> 300 µM (inactive)	> 300 µM (inactive)	> 300 µM (inactive)	> 300 µM (inactive)	> 300 µM (inactive)	> 300 µM (inactive)	> 300 µM (inactive)	> 300 µM (inactive)	> 300 µM (inactive)	299 µM (inactive)	> 300 µM (inactive)	> 300 µM (inactive)	
COC(=O)C1=CC[C@@H]2C(C(=O)O)=CO[C@@H](OC3OC(CO)C(O)C(O)C3O)[C@H]12 (stereo partly drawn)	> 300 µM (inactive)	> 300 µM (inactive)	> 300 µM (inactive)	> 300 µM (inactive)	> 300 µM (inactive)	> 119 µM (inactive)	> 142 µM (inactive)	> 300 µM (inactive)	> 300 µM (inactive)	> 300 µM (inactive)	> 300 µM (inactive)	> 300 µM (inactive)	299 µM (inactive)	> 300 µM (inactive)	> 263 µM (inactive)	> 110 µM (inactive)	> 300 µM (inactive)	> 300 µM (inactive)	> 300 µM (inactive)	
CCC/C=C/C=C\C(=O)O[C@@H]1[C@@H](C)[C@]2(O)[C@@H]3C=C(C)C(=O)[C@H]3CC(COC(C)=O)=C[C@H]2[C@@H]2C(C)(C)[C@]12OC(C)=O	66.5 µM (inactive)	33.7 µM (inactive)	48.4 µM (inactive)	27.7 µM (inactive)	40 µM (inactive)	3.56 µM (inactive)	44.9 µM (inactive)	11.2 µM (inactive)	41.4 µM (inactive)	42.9 µM (inactive)	2.33 µM (inactive)	39.4 µM (inactive)	46.6 µM (inactive)	46.5 µM (inactive)	33.2 µM (inactive)	14.8 µM (inactive)	1.89 µM (inactive)	50.7 µM (inactive)	46.7 µM (inactive)	
Nc1ccc2cc3ccc(N)cc3nc2c1 [PROFLAVINE SULFATE]	3.05 µM (inactive)				953 nM (active) and 668 nM (active)	508 nM (active) and 601 nM (active)	1.12 µM (active)	494 nM (active) and 397 nM (active)	1.26 µM (inactive) and 1.16 µM (inactive)	1.87 µM (inactive) and 1.49 µM (inactive)	2.62 µM (inactive) and 1.67 µM (inactive)	2.45 µM (inactive) and 1.88 µM (inactive)		690 nM (active) and 652 nM (active)		794 nM (active) and 1.09 µM (active)	2.47 µM (inactive) and 2.21 µM (inactive)	1.58 µM (inactive)	2.77 µM (inactive) and 1.51 µM (inactive)	789 nM (active) and 537 nM (active)
